Five molecules from patent US8614201B2 (Janssen Pharmaceutica NV, priority 2009, dated 2013) can be followed below.

For the assay, the target named is Human TRPA1 (Homo sapiens, UniProt O75762). As to the kind of experiment: Alternative TRPA1 Ca2+ fluorometry assay (hTRPA1/TREx-HEK293 cells, Fluo-4, FDSS 6000). The conditions noted are these: Fluo-4-AM, agonist 6,11-dihydro-5H-dibenzo[b,e]azepine-10-carboxylic acid methyl ester 25 nM, procedure used for Examples 184, 190 to 192, 194 to 316. Type of assay: cell-based. Further details: expressed in transfected cells. The gist of the method: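 Tetracycline-induced (50 ng/ml, 24 h) hTRPA1/TREx-HEK293 cells were loaded with Fluo-4-AM and probenecid. Compound (1% DMSO final) was added after a 12 s baseline and the Ca2+ signal followed for 14 min, then 25 nM TRPA1 agonist dibenzazepine carboxylic acid methyl ester was applied. Signal is Em540 (ex 488 nm) relative to the first baseline reading.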
Chain of Human TRPA1 (O75762 whole entry): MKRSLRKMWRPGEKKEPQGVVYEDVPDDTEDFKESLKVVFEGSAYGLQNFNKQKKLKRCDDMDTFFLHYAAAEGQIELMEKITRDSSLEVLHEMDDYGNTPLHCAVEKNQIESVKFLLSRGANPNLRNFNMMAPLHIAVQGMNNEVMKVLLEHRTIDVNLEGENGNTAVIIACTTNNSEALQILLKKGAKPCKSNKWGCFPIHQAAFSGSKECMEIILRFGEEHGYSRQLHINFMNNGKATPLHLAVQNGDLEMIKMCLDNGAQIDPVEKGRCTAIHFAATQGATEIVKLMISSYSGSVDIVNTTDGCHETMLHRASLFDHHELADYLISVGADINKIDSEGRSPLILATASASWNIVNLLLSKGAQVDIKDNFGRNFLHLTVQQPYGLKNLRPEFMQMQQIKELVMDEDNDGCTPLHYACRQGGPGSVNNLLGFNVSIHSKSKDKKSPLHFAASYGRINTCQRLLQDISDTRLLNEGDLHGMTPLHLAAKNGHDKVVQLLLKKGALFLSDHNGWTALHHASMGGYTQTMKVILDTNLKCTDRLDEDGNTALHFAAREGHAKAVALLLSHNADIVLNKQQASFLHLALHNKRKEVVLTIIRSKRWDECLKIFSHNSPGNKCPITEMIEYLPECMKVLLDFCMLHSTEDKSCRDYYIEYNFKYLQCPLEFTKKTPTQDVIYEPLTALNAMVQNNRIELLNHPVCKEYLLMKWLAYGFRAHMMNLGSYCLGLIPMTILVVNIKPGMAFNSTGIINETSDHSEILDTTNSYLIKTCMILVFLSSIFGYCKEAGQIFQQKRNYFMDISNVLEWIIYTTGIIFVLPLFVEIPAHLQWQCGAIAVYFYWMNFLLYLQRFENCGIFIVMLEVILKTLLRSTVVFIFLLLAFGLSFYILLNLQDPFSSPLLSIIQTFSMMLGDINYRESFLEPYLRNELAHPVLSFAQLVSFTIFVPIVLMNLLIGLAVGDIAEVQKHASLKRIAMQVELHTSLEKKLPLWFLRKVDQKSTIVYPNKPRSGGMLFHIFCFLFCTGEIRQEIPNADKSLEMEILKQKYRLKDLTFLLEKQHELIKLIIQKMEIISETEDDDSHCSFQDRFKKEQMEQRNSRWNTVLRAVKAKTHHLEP

In the case of `O=C(NCc1cc(-c2ccc(C(F)(F)F)cc2)nc(NCCc2cccnc2)n1)[C@@H]1CCCN1S(=O)(=O)c1ccc(F)cc1` [Example 312, 1-(4-Fluoro-benzenesulfonyl)-pyrrolidine-2S-carboxylic acid [2-(2-pyridin-3-yl-ethylamino)-6-(4-trifluoromethyl-phenyl)-pyrimidin-4-ylmethyl]-amide], the IC50 – broadly, the concentration needed to halve the response being measured – worked out at 295 nM.
The figure for `CC(Nc1nc(CNC(=O)[C@@H]2CCCN2S(=O)(=O)c2ccc(F)cc2)cc(-c2ccc(C(F)(F)F)cc2)n1)c1ccccc1` (stereo partly drawn) [Example 313, 1-(4-Fluoro-benzenesulfonyl)-pyrrolidine-2S-carboxylic acid [2-(1-phenyl-ethylamino)-6-(4-trifluoromethyl-phenyl)-pyrimidin-4-ylmethyl]-amide] is approximately 489 nM; for `CN1CCN(c2nc(CNC(=O)[C@@H]3CCCN3S(=O)(=O)c3ccc(F)cc3)cc(-c3ccc(C(F)(F)F)cc3)n2)CC1` [Example 314, 1-(4-Fluoro-benzenesulfonyl)-pyrrolidine-2-carboxylic acid [2-(4-methyl-piperazin-1-yl)-6-(4-trifluoromethyl-phenyl)-pyrimidin-4-ylmethyl]-amide] it is approximately 1320 nM; for `O=C(NCc1cc(-c2ccc(C(F)(F)F)cc2)nc(NCCN2CCOCC2)n1)[C@@H]1CCCN1S(=O)(=O)c1ccc(F)cc1` [Example 315, 1-(4-Fluoro-benzenesulfonyl)-pyrrolidine-2S-carboxylic acid [2-(2-morpholin-4-yl-ethylamino)-6-(4-trifluoromethyl-phenyl)-pyrimidin-4-ylmethyl]-amide] it is approximately 450 nM.
Molecule `O=C(NCc1cc(-c2ccc(Br)cc2)nc(NCCN2CCOCC2)n1)[C@@H]1CCCN1S(=O)(=O)c1ccc(F)cc1` [Example 316, 1-(4-Fluoro-benzenesulfonyl)-pyrrolidine-2S-carboxylic acid [6-(4-bromo-phenyl)-2-(2-morpholin-4-yl-ethylamino)-pyrimidin-4-ylmethyl]-amide] yielded an IC50 of 1450 nM.
